Laboratory results reported in article PMC5216056 (Nature Communications, 2017).
Values joined by “and” are separate entries in the source; they are usually repeats but may differ in a detail not shown here. Equal entries are not always repeated.

How the values were obtained:
[1] = target: hCB2R (Homo sapiens, UniProt P34972); experiment: cell-based; format: cell-based; parameters: expressed in transfected cells; host or cells: Flp-In-293 (Invitrogen #R750-07), pcDNA5/FRT; conditions: for Emax ± SEM GIRK hCB2R: normalized to CP55940
Sequence of hCB2R (P34972 whole entry): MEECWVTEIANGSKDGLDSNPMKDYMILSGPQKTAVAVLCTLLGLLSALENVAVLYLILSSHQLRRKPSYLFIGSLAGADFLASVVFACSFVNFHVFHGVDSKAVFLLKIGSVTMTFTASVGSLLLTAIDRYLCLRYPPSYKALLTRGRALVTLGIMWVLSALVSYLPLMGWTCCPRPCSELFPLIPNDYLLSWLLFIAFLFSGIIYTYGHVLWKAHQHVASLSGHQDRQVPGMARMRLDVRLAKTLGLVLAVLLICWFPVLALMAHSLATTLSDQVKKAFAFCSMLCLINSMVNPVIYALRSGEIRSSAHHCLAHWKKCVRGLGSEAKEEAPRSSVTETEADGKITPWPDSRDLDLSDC

[2] = target: T1, A1 (h) (Homo sapiens, UniProt P30542); experiment: CEREP panel; format: binding; conditions: 10 µM
T1 construct: CEREP
T1 sequence (P30542 1-326): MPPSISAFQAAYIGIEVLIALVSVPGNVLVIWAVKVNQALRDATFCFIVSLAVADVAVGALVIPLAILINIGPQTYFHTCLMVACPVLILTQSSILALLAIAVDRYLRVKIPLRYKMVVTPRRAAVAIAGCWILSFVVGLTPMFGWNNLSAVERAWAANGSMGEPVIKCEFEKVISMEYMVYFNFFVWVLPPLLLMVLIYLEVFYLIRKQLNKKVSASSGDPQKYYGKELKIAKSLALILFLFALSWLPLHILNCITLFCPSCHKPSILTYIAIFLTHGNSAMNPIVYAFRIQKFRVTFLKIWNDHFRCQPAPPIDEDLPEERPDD

[3] = target: mouse P-gp (Mus musculus, UniProt P21447); conditions: efflux ratio
Sequence of mouse P-gp (P21447 whole entry): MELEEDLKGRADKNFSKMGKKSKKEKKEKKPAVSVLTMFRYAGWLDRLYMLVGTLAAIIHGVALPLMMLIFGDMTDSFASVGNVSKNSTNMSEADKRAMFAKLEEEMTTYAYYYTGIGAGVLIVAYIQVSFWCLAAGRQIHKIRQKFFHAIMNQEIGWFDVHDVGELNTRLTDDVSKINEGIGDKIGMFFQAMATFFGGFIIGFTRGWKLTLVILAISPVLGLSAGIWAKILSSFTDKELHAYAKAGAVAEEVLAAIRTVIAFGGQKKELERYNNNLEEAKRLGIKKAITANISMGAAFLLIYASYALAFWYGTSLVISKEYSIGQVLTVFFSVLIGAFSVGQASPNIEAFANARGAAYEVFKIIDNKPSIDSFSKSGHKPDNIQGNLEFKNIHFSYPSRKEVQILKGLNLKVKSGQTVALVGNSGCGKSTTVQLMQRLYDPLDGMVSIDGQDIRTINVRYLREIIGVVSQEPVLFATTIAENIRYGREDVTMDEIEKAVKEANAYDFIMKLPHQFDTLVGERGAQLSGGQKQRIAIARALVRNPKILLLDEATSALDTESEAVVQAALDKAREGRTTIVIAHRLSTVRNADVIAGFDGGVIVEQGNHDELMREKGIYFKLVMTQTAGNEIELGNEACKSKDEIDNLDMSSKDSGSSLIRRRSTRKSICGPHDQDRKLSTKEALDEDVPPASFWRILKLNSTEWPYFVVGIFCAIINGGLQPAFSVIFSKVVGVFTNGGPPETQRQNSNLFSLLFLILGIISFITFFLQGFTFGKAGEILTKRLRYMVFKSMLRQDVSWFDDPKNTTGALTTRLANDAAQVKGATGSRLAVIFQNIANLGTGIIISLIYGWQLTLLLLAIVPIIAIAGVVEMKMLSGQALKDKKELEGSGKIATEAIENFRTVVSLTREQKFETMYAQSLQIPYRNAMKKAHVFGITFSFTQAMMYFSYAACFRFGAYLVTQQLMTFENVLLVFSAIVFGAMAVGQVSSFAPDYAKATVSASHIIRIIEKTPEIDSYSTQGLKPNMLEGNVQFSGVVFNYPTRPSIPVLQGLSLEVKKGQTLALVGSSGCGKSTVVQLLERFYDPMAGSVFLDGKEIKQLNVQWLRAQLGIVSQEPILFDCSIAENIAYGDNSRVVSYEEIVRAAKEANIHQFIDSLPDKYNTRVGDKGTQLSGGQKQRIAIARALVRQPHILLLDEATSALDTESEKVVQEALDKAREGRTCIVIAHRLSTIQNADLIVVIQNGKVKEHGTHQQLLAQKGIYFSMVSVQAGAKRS

[4] = 1 μM
[5] = system: PCP; format: binding; conditions: 10 µM
[6] = target: T2, Rat recombinant TRPV4 (Rattus norvegicus, UniProt Q9ERZ8); experiment: cell-based; format: cell-based; conditions: for IC50: vs 4αPDD 1μM, read-out: TRPV4 IC50 for desensitization
T2 construct: expressed in transfected cells; host or cells: HEK293 (TRPV4-HEK-293, gift from HB Bradshaw, Indiana University)
T2 sequence (Q9ERZ8 whole entry): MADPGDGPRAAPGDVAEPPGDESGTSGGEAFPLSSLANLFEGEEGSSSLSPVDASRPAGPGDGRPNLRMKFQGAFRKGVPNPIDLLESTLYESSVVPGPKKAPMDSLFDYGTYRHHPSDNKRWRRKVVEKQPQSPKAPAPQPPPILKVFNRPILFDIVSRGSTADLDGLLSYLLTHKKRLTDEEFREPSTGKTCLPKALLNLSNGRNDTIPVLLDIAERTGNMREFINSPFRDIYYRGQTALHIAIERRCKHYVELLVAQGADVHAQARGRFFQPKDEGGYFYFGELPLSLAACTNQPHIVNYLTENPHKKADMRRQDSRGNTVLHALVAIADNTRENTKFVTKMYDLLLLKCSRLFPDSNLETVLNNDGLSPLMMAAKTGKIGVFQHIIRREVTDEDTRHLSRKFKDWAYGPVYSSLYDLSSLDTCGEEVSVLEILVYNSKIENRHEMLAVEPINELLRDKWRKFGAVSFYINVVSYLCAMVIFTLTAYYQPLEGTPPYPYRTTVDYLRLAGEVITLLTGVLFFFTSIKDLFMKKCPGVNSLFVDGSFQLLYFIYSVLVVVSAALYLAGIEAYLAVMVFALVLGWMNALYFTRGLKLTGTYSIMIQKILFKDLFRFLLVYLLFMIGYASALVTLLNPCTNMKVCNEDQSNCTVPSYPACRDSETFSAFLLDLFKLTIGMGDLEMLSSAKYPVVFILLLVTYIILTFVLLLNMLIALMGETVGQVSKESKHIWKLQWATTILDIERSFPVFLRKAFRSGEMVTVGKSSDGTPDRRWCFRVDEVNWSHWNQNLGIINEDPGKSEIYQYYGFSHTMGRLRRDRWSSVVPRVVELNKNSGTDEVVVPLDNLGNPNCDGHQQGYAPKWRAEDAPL

[7] = target: T3, norepinephrine transporter (h) (Homo sapiens, UniProt P23975); experiment: biochemical; format: binding; conditions: 10 µM
T3 construct: CEREP (contract assay)
T3 sequence (P23975 whole entry): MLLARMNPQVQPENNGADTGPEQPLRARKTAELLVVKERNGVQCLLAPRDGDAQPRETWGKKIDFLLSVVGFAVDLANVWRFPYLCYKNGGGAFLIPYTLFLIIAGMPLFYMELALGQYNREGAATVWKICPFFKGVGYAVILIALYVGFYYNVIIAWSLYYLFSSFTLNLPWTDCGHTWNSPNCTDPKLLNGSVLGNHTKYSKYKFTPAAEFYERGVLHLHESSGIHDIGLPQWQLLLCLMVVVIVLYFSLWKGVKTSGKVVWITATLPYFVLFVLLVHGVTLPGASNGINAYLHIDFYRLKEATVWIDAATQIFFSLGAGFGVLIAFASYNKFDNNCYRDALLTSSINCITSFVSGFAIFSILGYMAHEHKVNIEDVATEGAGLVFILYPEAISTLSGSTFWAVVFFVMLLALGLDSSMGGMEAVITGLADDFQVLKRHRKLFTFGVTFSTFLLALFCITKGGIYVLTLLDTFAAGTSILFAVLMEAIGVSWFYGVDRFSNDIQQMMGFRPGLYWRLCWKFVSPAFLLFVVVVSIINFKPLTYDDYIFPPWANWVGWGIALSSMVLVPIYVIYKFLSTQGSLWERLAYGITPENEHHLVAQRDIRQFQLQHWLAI

[8] = target: T4, A3 (h) (Homo sapiens, UniProt P0DMS8); experiment: CEREP panel; format: binding; conditions: 10 µM
T4 construct: CEREP
T4 sequence (P0DMS8 1-318): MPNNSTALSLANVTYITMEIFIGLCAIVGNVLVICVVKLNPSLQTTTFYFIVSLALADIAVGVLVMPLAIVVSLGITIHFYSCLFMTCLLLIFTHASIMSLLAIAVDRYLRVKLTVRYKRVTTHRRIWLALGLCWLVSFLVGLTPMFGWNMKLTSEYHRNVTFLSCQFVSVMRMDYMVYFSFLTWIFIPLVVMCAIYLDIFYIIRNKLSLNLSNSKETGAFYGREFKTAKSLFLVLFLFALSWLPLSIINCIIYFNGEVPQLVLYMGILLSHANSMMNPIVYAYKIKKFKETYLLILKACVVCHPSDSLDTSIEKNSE

[9] = system: Ca2+ channel (L, diltiazem site); experiment: CEREP panel; format: binding; conditions: 10 µM
[10] = target: T5, PPARα (h) (Homo sapiens, UniProt Q07869); experiment: CEREP panel; format: binding; conditions: 10 µM
T5 construct: CEREP (contract assay)
T5 sequence (Q07869 1-468): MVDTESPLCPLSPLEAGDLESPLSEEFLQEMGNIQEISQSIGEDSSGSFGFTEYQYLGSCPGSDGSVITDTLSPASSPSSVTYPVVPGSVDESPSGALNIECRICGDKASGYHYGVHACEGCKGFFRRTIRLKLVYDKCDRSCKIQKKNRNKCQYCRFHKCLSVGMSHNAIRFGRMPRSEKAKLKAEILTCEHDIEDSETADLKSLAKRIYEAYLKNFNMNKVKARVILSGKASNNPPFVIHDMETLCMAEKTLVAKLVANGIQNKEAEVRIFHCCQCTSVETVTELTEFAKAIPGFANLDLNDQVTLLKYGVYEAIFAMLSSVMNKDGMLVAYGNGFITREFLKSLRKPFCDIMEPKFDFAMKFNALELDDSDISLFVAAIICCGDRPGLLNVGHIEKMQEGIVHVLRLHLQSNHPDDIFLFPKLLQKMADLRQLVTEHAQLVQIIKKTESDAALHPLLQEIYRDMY

[11] = target: T6, AT1 (h) (Homo sapiens, UniProt P30556); experiment: CEREP panel; format: binding; conditions: 10 µM
T6 construct: CEREP
T6 sequence (P30556 1-359): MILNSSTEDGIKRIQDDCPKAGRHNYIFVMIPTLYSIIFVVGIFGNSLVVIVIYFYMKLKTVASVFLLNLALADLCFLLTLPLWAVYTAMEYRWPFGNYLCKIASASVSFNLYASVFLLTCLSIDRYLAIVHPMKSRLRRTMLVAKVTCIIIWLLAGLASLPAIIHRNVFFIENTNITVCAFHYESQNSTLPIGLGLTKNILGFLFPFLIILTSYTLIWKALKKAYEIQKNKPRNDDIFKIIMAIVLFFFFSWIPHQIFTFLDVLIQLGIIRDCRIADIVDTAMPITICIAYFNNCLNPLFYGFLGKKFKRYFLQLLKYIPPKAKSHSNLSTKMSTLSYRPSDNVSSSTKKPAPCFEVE

[12] = system: AEA cellular uptake in HMC-1 cells; experiment: cells; format: cell-based, human; conditions: read-out: AEA reuptake IC50 (95% CI) HMC-1 cells; FAAH-deficient cells
[13] = i.v., mice; for C0: 1.0-2.0 mg/kg, extrapolated
[14] = system: Na+ channel (site 2); format: binding; conditions: 10 µM
[15] = target: T7, Human recombinant TRPV1 (Homo sapiens, UniProt Q8NER1); experiment: cell-based; format: cell-based; conditions: for IC50: read-out: TRPV1 IC50 for antagonism or desensitization
T7 construct: expressed in transfected cells; host or cells: HEK293 (TRPV1-HEK-293, gift from John Davis, GlaxoSmithKline)
T7 sequence (Q8NER1 whole entry): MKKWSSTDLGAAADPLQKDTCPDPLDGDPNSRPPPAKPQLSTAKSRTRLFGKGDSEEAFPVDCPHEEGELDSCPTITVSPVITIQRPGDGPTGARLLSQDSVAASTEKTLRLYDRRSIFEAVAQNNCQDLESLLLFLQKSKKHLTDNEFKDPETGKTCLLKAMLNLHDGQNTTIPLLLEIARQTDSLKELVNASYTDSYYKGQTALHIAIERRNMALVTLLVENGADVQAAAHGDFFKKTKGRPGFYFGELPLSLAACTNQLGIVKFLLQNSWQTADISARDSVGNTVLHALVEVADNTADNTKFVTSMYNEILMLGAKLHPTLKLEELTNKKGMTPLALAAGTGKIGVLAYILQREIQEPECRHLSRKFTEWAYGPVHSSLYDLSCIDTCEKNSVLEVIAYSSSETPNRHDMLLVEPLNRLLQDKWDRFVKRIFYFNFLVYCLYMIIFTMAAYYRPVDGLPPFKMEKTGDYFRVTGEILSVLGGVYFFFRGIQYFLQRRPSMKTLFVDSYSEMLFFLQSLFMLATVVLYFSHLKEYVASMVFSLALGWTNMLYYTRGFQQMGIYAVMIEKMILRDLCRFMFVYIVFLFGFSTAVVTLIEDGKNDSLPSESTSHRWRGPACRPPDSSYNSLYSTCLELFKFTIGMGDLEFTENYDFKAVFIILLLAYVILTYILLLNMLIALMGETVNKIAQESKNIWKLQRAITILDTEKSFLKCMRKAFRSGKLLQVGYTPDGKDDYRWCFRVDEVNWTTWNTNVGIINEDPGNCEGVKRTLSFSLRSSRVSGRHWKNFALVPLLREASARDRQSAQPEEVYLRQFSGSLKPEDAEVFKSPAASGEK

[16] = target: T8, hCB1R (Homo sapiens, UniProt P21554); experiment: cell-based; format: cell-based
T8 construct: host or cells: CHO
T8 sequence (P21554 whole entry): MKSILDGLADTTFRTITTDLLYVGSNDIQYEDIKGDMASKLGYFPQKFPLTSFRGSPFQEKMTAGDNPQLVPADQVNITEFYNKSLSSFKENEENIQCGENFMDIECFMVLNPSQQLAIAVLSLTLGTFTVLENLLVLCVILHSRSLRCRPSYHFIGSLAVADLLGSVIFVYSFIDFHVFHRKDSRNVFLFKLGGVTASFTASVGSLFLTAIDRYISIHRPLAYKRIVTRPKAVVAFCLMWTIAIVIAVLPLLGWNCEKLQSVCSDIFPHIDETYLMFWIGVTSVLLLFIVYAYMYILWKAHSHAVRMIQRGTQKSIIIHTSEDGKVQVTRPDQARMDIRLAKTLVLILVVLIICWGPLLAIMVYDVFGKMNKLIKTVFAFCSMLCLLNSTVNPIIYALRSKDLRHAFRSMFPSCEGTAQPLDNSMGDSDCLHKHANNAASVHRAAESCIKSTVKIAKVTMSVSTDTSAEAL

[17] = target: T9, hGPR55 (Homo sapiens, UniProt Q9Y2T6); experiment: cell-based; conditions: β-arrestin recruitment
T9 construct: host or cells: CHO-K1 (PathHunter hGPR55_bgal)
T9 sequence (Q9Y2T6 whole entry): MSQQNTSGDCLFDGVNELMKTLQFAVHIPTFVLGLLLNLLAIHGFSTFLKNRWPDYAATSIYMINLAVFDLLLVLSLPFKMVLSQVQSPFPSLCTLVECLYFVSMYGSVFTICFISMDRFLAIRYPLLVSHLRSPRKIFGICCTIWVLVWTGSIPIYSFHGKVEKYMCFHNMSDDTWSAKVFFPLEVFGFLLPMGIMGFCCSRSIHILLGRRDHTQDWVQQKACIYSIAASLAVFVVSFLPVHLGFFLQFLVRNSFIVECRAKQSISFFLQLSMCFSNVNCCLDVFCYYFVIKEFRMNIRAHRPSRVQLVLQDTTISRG

Row | SMILES | pEC50 ± SEM GIRK hCB2R [1] | % inhibition A1 (h) [2] | P-gp (ER) mouse [3] | CL hepatocytes mouse [4] | % inhibition PCP [5] | TRPV4 Efficacy (% ionomycin 4μM) [6] | IC50 [6] | % inhibition norepinephrine transporter (h) [7] | % inhibition A3 (h) [8] | % inhibition PPARα (h) [10] | % inhibition AT1 (h) [11] | IC50 [12] | AUCinf [13] | AUCinf/dose [13] | AUClast [13] | CL [13] | T1/2 [13] | C0 [13] | TRPV1 Efficacy (% ionomycin 4μM) [15] | IC50 [15] | further results
1 | CN1CCCC[C@H]1Cn1cc(C(=O)c2cc([N+](=O)[O-])ccc2I)c2ccccc21 [(S)-AM1241] | 5.6 ± 0.14 | 14% | 1.4 | 251 µL/min/mio cells | 2% | < 10% | 8.6 ± 0.3 µM | 26% | 42% | -18% | 1% | > 5 µM | 276 ng·h/mL | 145 kg·ng·h/mL/mg | 269 ng·h/mL | 115 mL/min/kg | 1.4 h | 413 ng/mL | 12.0% | > 50 µM | Emax ± SEM GIRK hCB2R [1]: 68 ± 13%; % inhibition Ca2+ channel (L, diltiazem site) [9]: 90%; % inhibition Na+ channel (site 2) [14]: 87%; EC50 ([15]; read-out: TRPV1 Potency EC50): > 50 µM; Emax ± SEM pERK hCB1R [16]: 17 ± 3; pEC50 ± SEM pERK hCB1R [16]: < 4
2 | CCCCCCC(C)(C)c1cc(OC)c(C2=C[C@H]3CC[C@]2(CO)C3(C)C)c(OC)c1 [HU910] |  | 23% | 3.0 | 34 µL/min/mio cells | -25% | < 10% | > 100 µM | 58% | 62% | -28% | 37% | > 5 µM | 6060 ng·h/mL | 6060 kg·ng·h/mL/mg | 5960 ng·h/mL | 2.83 mL/min/kg | 7.4 h and 7 h | 55600 ng/mL | < 10% | > 100 µM | Emax ± SEM GIRK hCB2R [1]: 74 ± 2%; % inhibition Na+ channel (site 2) [14]: 5%; GPR55 Emax ± SEM (%) or % effect at 10 µM [17]: -10 ± 3%; GPR55 pEC50 (± SEM) [17]: < 5; Emax ± SEM pERK hCB1R [16]: 12 ± 4; pEC50 ± SEM pERK hCB1R [16]: < 4
3 | COc1ccc(C(=O)c2c(C)n(CCN3CCOCC3)c3cc(I)ccc23)cc1 [AM630] | 5.82 ± 0.08 | 28% | 1.3 | 101 µL/min/mio cells | 9% | < 10% | 3.2 ± 0.1 µM | 38% | 76% | -17% | 17% | > 10 µM | 197 ng·h/mL | 197 kg·ng·h/mL/mg | 177 ng·h/mL | 85 mL/min/kg | 2.9 h | 69.8 ng/mL | < 10% | > 100 µM | % inhibition Ca2+ channel (L, diltiazem site) [9]: -11%; GPR55 pEC50 (± SEM) [17]: < 5
